ChEMBL document CHEMBL1201862, “PubChem BioAssay data set” (2004)
Values joined by “and” are separate entries in the source; they are usually repeats but may differ in a detail not shown here. Equal entries are not always repeated.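 How tested: cells in 96-well plates exposed to compound for 48 hours at five concentrations. GI50 is the concentration that inhibits growth by half.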 Active and inactive are the calls of the source. Cut-off read from the data, not from the text of the source: active = GI50 up to about 1.1 µM and inactive = higher.

Key:
Experiment in all cases: NCI anticancer screen, dose series, 48 h
A549 = system: A549
COLO 205 = system: COLO 205
TK-10 = system: TK-10
NCI/ADR-RES = system: NCI/ADR-RES
NCI-H23 = system: NCI-H23
SK-MEL-2 = system: SK-MEL-2
HL-60 = system: HL-60
HCT-116 = system: HCT-116
MCF7 = system: MCF7
UACC-257 = system: UACC-257
SF-268 = system: SF-268
K562 = system: K562
HCT-15 = system: HCT-15
BT-549 = system: BT-549
NCI-H226 = system: NCI-H226
NCI-H522 = system: NCI-H522
CAKI-1 = system: CAKI-1
MDA-MB-231 = system: MDA-MB-231
MDA-MB-435 = system: MDA-MB-435
MDA-N = system: MDA-N

| Structure (SMILES) | GI50 (A549) | GI50 (COLO 205) | GI50 (TK-10) | GI50 (NCI/ADR-RES) | GI50 (NCI-H23) | GI50 (SK-MEL-2) | GI50 (HL-60) | GI50 (HCT-116) | GI50 (MCF7) | GI50 (UACC-257) | GI50 (SF-268) | GI50 (K562) | GI50 (HCT-15) | GI50 (BT-549) | GI50 (NCI-H226) | GI50 (NCI-H522) | GI50 (CAKI-1) | GI50 (MDA-MB-231) | GI50 (MDA-MB-435) | GI50 (MDA-N) |
| --- | --- | --- | --- | --- | --- | --- | --- | --- | --- | --- | --- | --- | --- | --- | --- | --- | --- | --- | --- | --- |
| CN1C(=O)C(O)CC1c1cccc(C(F)(F)F)c1 (stereo not given) | > 100 µM (inactive) | > 100 µM (inactive) | > 100 µM (inactive) | > 100 µM (inactive) | > 100 µM (inactive) | > 100 µM (inactive) | > 100 µM (inactive) | > 100 µM (inactive) | > 100 µM (inactive) | > 100 µM (inactive) | > 100 µM (inactive) | > 100 µM (inactive) | > 100 µM | > 100 µM (inactive) | > 100 µM (inactive) | > 100 µM (inactive) | > 100 µM (inactive) | > 100 µM (inactive) | > 100 µM (inactive) |  |
| COC(=O)[C@@H]1[C@@H]2NC(=S)N[C@@]1(C)Oc1ccccc12 |  | 37.5 µM (inactive) | > 100 µM (inactive) | 30.2 µM (inactive) | 42.6 µM (inactive) | > 100 µM (inactive) |  | 67.6 µM (inactive) | 45.7 µM (inactive) | > 100 µM (inactive) | 39 µM (inactive) | 29.5 µM (inactive) | 32.1 µM | 83.6 µM (inactive) | 91.4 µM (inactive) | 31.6 µM (inactive) | 76.9 µM (inactive) | 74.6 µM (inactive) | 10.1 µM (inactive) | 18.4 µM (inactive) |
| O=C(/C=C/c1ccc2c(c1)OCO2)c1ccccc(=O)c1O |  | 4.94 µM (inactive) | 18.8 µM (inactive) | 2.08 µM (inactive) |  | 20.8 µM (inactive) |  | 6.05 µM (inactive) |  | 17.9 µM (inactive) | 3.42 µM (inactive) | 6.84 µM (inactive) | 3.85 µM | 15.7 µM (inactive) | 35.6 µM (inactive) | 9.62 µM (inactive) | 5.98 µM (inactive) | 37.9 µM (inactive) | 13.9 µM (inactive) | 16.4 µM (inactive) |
| CCC/C(Cl)=N\OC(=O)Nc1ccc(F)c([N+](=O)[O-])c1 | 24.7 µM (inactive) | 3.54 µM (inactive) | 17 µM (inactive) | 17.9 µM (inactive) | 12.9 µM (inactive) | 14.3 µM (inactive) |  | 26.2 µM (inactive) | 25.5 µM (inactive) | 17.3 µM (inactive) | 14.2 µM (inactive) | 5.32 µM (inactive) | 16.9 µM | 10.2 µM (inactive) | 24.2 µM (inactive) | 1.79 µM (inactive) | 4.3 µM (inactive) | 20.3 µM (inactive) | 16.2 µM (inactive) | 21.1 µM (inactive) |
| Nc1nc(Nc2ccc(Cl)cc2)sc1C(=O)c1cccs1 | 27.9 µM (inactive) | > 100 µM (inactive) | 13.1 µM (inactive) | 50.6 µM (inactive) | 29.2 µM (inactive) | 98.9 µM (inactive) | > 100 µM (inactive) | 14.7 µM (inactive) | 33.4 µM (inactive) | > 100 µM (inactive) | 28.7 µM (inactive) |  | > 100 µM | 40.5 µM (inactive) | 24.7 µM (inactive) |  |  | 40 µM (inactive) | > 100 µM (inactive) | > 100 µM (inactive) |
| Cc1nc2cc(F)c(F)cc2[nH]c1=O | > 100 µM (inactive) | > 100 µM (inactive) | > 100 µM (inactive) | > 100 µM (inactive) | > 100 µM (inactive) | > 100 µM (inactive) | > 100 µM (inactive) | > 100 µM (inactive) | > 100 µM (inactive) | > 100 µM (inactive) | > 100 µM (inactive) | > 100 µM (inactive) | > 100 µM | > 100 µM (inactive) | > 100 µM (inactive) |  | > 100 µM (inactive) | > 100 µM (inactive) | > 100 µM (inactive) | > 100 µM (inactive) |
| Cc1ccc(S(=O)(=O)SC/C=C\CSS(=O)(=O)c2ccc(C)cc2)cc1 | 31.5 µM (inactive) and 35.7 µM (inactive) |  |  | 52.2 µM (inactive) | 16.6 µM (inactive) and 12.4 µM (inactive) | 47 µM (inactive) |  |  | 3.51 µM (inactive) |  | 26.3 µM (inactive) and 19.8 µM (inactive) |  |  | 9.59 µM (inactive) | 23.1 µM (inactive) and 24.3 µM (inactive) |  | 21.4 µM (inactive) and 18.2 µM (inactive) | 16.4 µM (inactive) | 5.82 µM (inactive) | 14.4 µM (inactive) |
| CCOC(=O)c1c(NC(=O)c2ccccc2)sc2c1CCC2 | > 100 µM (inactive) | > 100 µM (inactive) | > 100 µM (inactive) | > 100 µM (inactive) | > 100 µM (inactive) | > 100 µM (inactive) | > 100 µM (inactive) | > 100 µM (inactive) | > 100 µM (inactive) | > 100 µM (inactive) | > 100 µM (inactive) | > 100 µM (inactive) | > 100 µM | > 100 µM (inactive) | > 100 µM (inactive) |  | > 100 µM (inactive) | > 100 µM (inactive) |  | > 100 µM (inactive) |
| NC(CCCCNC(=O)CNC(=O)OCc1ccccc1)C(=O)NC(CCCCNC(=O)CNC(=O)OCc1ccccc1)C(=O)NC(CCCCNC(=O)CNC(=O)OCc1ccccc1)C(=O)NC(CCCCNC(=O)CNC(=O)OCc1ccccc1)C(=O)NC(CCCCNC(=O)CNC(=O)OCc1ccccc1)C(=O)NC(CCCCNC(=O)CNC(=O)OCc1ccccc1)C(=O)O (stereo not given) | > 75 µM (inactive) |  | > 75 µM (inactive) |  | > 75 µM (inactive) | > 75 µM (inactive) | > 75 µM (inactive) | > 75 µM (inactive) | > 75 µM (inactive) | > 75 µM (inactive) | > 75 µM (inactive) | > 75 µM (inactive) | > 75 µM | > 75 µM (inactive) | > 75 µM (inactive) | 16.9 µM (inactive) | > 75 µM (inactive) | > 75 µM (inactive) | > 75 µM (inactive) |  |
| CC(=O)Nc1ccc2cc3[nH]c4cc(NC(C)=O)ccc4c3nc2c1 | > 100 µM (inactive) | > 100 µM (inactive) | > 100 µM (inactive) | > 100 µM (inactive) | > 100 µM (inactive) | > 100 µM (inactive) |  | > 100 µM (inactive) | > 100 µM (inactive) | > 100 µM (inactive) | > 100 µM (inactive) | 77.1 µM (inactive) | > 100 µM | > 100 µM (inactive) | > 100 µM (inactive) | > 100 µM (inactive) | > 100 µM (inactive) | > 100 µM (inactive) | > 100 µM (inactive) | > 100 µM (inactive) |
| Cn1c(=O)c2c(nc(N3CCOCC3)n2CCCNCC(O)c2ccc(O)c(O)c2)n(C)c1=O (stereo not given) | > 100 µM (inactive) | > 100 µM (inactive) | > 100 µM (inactive) | > 100 µM (inactive) | > 100 µM (inactive) | > 100 µM (inactive) |  | > 100 µM (inactive) | > 100 µM (inactive) | > 100 µM (inactive) | > 100 µM (inactive) | > 100 µM (inactive) | > 100 µM | > 100 µM (inactive) | > 100 µM (inactive) | > 100 µM (inactive) | > 100 µM (inactive) | 0.0262 µM (active) | 38.9 µM (inactive) |  |
| O[C@H]1[C@H](O)[C@@H](O)[C@@]2(O)CC[C@@H]1N2 | > 100 µM (inactive) | > 100 µM (inactive) | > 100 µM (inactive) | > 100 µM (inactive) | > 100 µM (inactive) | > 100 µM (inactive) |  | > 100 µM (inactive) | > 100 µM (inactive) | > 100 µM (inactive) | > 100 µM (inactive) | > 100 µM (inactive) | > 100 µM | > 100 µM (inactive) | > 100 µM (inactive) | > 100 µM (inactive) | > 100 µM (inactive) | > 100 µM (inactive) | > 100 µM (inactive) | > 100 µM (inactive) |
| Cc1ccc(S(=O)(=O)N2CCN(S(=O)(=O)c3ccc(C)cc3)Cc3ccccc3C2)cc1 | 80.5 µM (inactive) | > 100 µM (inactive) | > 100 µM (inactive) | > 100 µM (inactive) | 57.5 µM (inactive) | > 100 µM (inactive) | > 100 µM (inactive) | > 100 µM (inactive) | 50.5 µM (inactive) | 49.8 µM (inactive) | 81.1 µM (inactive) | > 100 µM (inactive) | > 100 µM | 64.9 µM (inactive) | 60.3 µM (inactive) | 21.6 µM (inactive) | 39.4 µM (inactive) | > 100 µM (inactive) | 34.3 µM (inactive) |  |
| O=C(O)CCC(/N=C(\C(=N\C(CCC(=O)O)C(=O)O)c1ccccc1)c1ccccc1)C(=O)O (stereo not given) | > 100 µM (inactive) | > 100 µM (inactive) | > 100 µM (inactive) | > 100 µM (inactive) | > 100 µM (inactive) | > 100 µM (inactive) |  | > 100 µM (inactive) | > 100 µM (inactive) | > 100 µM (inactive) | > 100 µM (inactive) | > 100 µM (inactive) | > 100 µM | 90.2 µM (inactive) | > 100 µM (inactive) |  |  | > 100 µM (inactive) | > 100 µM (inactive) | > 100 µM (inactive) |
| Nc1nc(Cl)cc(NCC2(CO)CC=CC2)n1 | > 100 µM (inactive) | > 100 µM (inactive) | > 100 µM (inactive) | > 100 µM (inactive) |  | > 100 µM (inactive) |  | > 100 µM (inactive) | > 100 µM (inactive) | > 100 µM (inactive) | > 100 µM (inactive) | > 100 µM (inactive) | > 100 µM | 33.1 µM (inactive) | > 100 µM (inactive) | 68.7 µM (inactive) | > 100 µM (inactive) | > 100 µM (inactive) | > 100 µM (inactive) | > 100 µM (inactive) |
